Data reported in the supplement of paper PMC10307832.

Columns and labels:
Experiment in all cases: relative viability (nuclei count vs DMSO), 5 days (fraction); higher = more cells survive
[1] = compound: CCn1c(-c2nonc2N)nc2cnc(Oc3cccc(NC(=O)c4ccc(OCCN5CCOCC5)cc4)c3)cc21 + CC1(C)CCC(c2ccc(Cl)cc2)=C(CN2CCN(c3ccc(C(=O)NS(=O)(=O)c4ccc(N[C@H](CCN5CCOCC5)CSc5ccccc5)c(S(=O)(=O)C(F)(F)F)c4)cc3)CC2)C1 [Navitoclax] (partner 0.5 µM)
How it was run: (§1)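 Dosing by pin tool came one day after lung cancer cell lines were seeded in 1536-well plates, using either one drug or a fixed anchor-drug dose plus five library-drug doses (not always all listed) in √10 steps. After 5 days, nuclei were counted on 4× images. Relative viability is treated-well nuclei count divided by vehicle-well nuclei count, and values are medians of duplicate plates.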

Mirin + Vorinostat = compound: N=C1NC(=O)/C(=C/c2ccc(O)cc2)S1 [Mirin] + O=C(CCCCCCC(=O)Nc1ccccc1)NO [Vorinostat] (partner 1 µM)
How it was run: as §1

Mirin + AZD7762 = compound: N=C1NC(=O)/C(=C/c2ccc(O)cc2)S1 [Mirin] + NC(=O)Nc1cc(-c2cccc(F)c2)sc1C(=O)N[C@H]1CCCNC1 [AZD7762] (partner 0.2 µM)
How it was run: as §1

Mirin + Decitabine = compound: N=C1NC(=O)/C(=C/c2ccc(O)cc2)S1 [Mirin] + Nc1ncn([C@H]2C[C@H](O)[C@@H](CO)O2)c(=O)n1 [Decitabine] (partner 2 µM)
How it was run: as §1

Cell Line | relative viability ([1]; first compound 0.04 µM) | relative viability ([1]; first compound 0.1265 µM) | relative viability ([1]; first compound 0.4 µM) | relative viability ([1]; first compound 1.265 µM) | relative viability ([1]; first compound 4 µM) | relative viability (Mirin + Vorinostat; first compound 0.25 µM) | relative viability (Mirin + Vorinostat; first compound 0.7906 µM) | relative viability (Mirin + Vorinostat; first compound 2.5 µM) | relative viability (Mirin + Vorinostat; first compound 7.906 µM) | relative viability (Mirin + Vorinostat; first compound 25 µM) | relative viability (Mirin + AZD7762; first compound 0.25 µM) | relative viability (Mirin + AZD7762; first compound 0.7906 µM) | relative viability (Mirin + AZD7762; first compound 2.5 µM) | relative viability (Mirin + AZD7762; first compound 7.906 µM) | relative viability (Mirin + AZD7762; first compound 25 µM) | relative viability (Mirin + Decitabine; first compound 0.25 µM) | relative viability (Mirin + Decitabine; first compound 0.7906 µM) | relative viability (Mirin + Decitabine; first compound 2.5 µM) | relative viability (Mirin + Decitabine; first compound 7.906 µM) | relative viability (Mirin + Decitabine; first compound 25 µM)
NCI-H596 | 1.06 | 0.962 | 1.01 | 1.01 | 1.01 | 0.727 | 0.474 | 0.641 | 0.758 | 0.589 | 1 | 1.02 | 1.09 | 1.05 | 1.11 | 1.03 | 1.2 | 1 | 0.993 | 0.998
NCI-H1755 | 1.06 | 1.01 | 0.944 | 0.992 | 0.996 | 0.761 | 0.62 | 0.863 | 0.59 | 0.824 | 0.503 | 0.431 | 0.472 | 0.383 | 0.453 | 0.725 | 0.775 | 0.703 | 0.717 | 0.752
NCI-H1993 | 0.795 | 0.941 | – | 0.902 | 0.787 | 1.07 | 0.627 | 0.89 | 0.947 | 0.737 | 0.897 | 0.628 | 0.679 | 0.808 | 0.971 | 0.656 | 0.46 | 0.663 | 0.525 | 0.551
NCI-H2347 | 0.967 | 0.811 | 0.858 | 0.365 | 0.502 | 0.569 | 0.645 | 0.641 | 0.494 | 0.66 | 0.946 | 0.786 | 0.861 | 0.669 | 0.704 | 0.595 | 0.599 | 0.604 | 0.604 | 0.611
NCI-H1437 | 1.1 | 1.09 | 1.02 | 0.747 | 0.607 | 0.88 | 0.955 | 0.875 | 0.896 | 1.02 | 1.06 | 1.18 | 1.11 | 1.1 | 1.06 | 0.571 | 0.559 | 0.606 | 0.647 | 0.555
NCI-H3122 | 1.02 | 1.03 | 1.05 | 0.974 | 0.979 | 1.06 | 1.01 | 1.08 | 0.997 | 1.05 | 1.01 | 0.954 | 0.927 | 1.07 | 1.1 | 0.41 | 0.431 | 0.432 | 0.372 | 0.353
PC-14 | 1.1 | 1.01 | 0.924 | 0.934 | 0.748 | 0.798 | 0.638 | 0.729 | 0.719 | 0.746 | 0.389 | 0.481 | 0.365 | 0.313 | 0.429 | 0.2 | 0.24 | 0.232 | 0.225 | 0.205
NCI-H727 | 0.476 | 0.564 | 0.46 | 0.441 | 0.382 | 0.912 | 1.27 | 1.24 | 1.23 | 1.19 | 0.595 | 0.612 | 0.841 | 0.47 | 0.443 | 0.603 | 0.83 | 1 | 0.865 | 0.922
NCI-H1734 | 1.11 | 0.81 | 0.684 | 0.564 | 0.345 | 0.797 | 0.688 | 0.783 | 0.693 | 0.735 | 0.529 | 0.42 | 0.549 | 0.498 | 0.483 | 0.479 | 0.493 | 0.565 | 0.491 | 0.419
NCI-H647 | 1.06 | 0.828 | 0.89 | 0.517 | 0.595 | 0.4 | 0.536 | 0.586 | 0.623 | 0.48 | 0.415 | 0.366 | 0.465 | 0.593 | 0.587 | 0.446 | 0.423 | 0.361 | 0.401 | 0.387
NCI-H1944 | 1.03 | 1.03 | – | 1.02 | 0.97 | 0.511 | 0.494 | 0.649 | 0.449 | 0.511 | 0.555 | 0.569 | 0.537 | 0.381 | 0.381 | 0.426 | 0.471 | 0.489 | 0.425 | 0.436
LK-2 | 0.989 | 0.928 | 0.467 | 0.349 | 0.686 | 0.204 | 0.234 | 0.294 | 0.207 | 0.271 | 0.22 | – | 0.338 | 0.209 | 0.185 | 0.161 | 0.206 | 0.299 | 0.21 | 0.227
HCC-15 | 0.876 | 0.636 | 0.693 | 0.586 | 0.708 | 0.902 | 0.955 | 0.915 | 0.838 | 0.82 | 0.589 | 0.973 | 1.33 | 1.28 | 1.18 | 0.612 | 0.517 | 0.618 | 0.59 | 0.505
NCI-H838 | 0.982 | 0.686 | 0.569 | 0.354 | 0.294 | 0.773 | 0.751 | 0.765 | 0.802 | 0.82 | 0.984 | 1.05 | 0.907 | 0.915 | 1.06 | 0.432 | 0.424 | 0.517 | 0.424 | 0.361
HOP-62 | 1.26 | 1.07 | 1.05 | – | 1.06 | 0.669 | 0.527 | 0.679 | 0.411 | 0.603 | 0.729 | 1.08 | 0.478 | 0.549 | 0.383 | 0.221 | 0.188 | 0.203 | 0.224 | 0.218
NCI-H322M | 1.39 | 1.16 | 1.28 | 1.26 | 1.32 | 1 | 0.87 | 0.93 | 1.28 | 1.11 | 0.508 | 0.653 | 0.51 | 0.551 | 0.57 | 0.674 | 0.712 | 0.725 | 0.705 | 0.614
NCI-H1395 | 1.19 | 1.02 | 0.982 | 0.534 | 0.729 | 0.809 | – | 0.822 | 0.811 | 0.938 | 0.402 | – | 0.419 | 0.434 | 0.393 | 0.721 | – | 0.814 | 0.741 | 0.66
EKVX | 1.13 | 1.01 | 0.861 | 0.895 | 0.831 | 0.784 | – | 0.785 | 0.935 | 0.799 | 0.631 | 0.709 | 0.771 | 0.727 | 0.689 | 0.317 | 0.338 | 0.395 | 0.361 | 0.26
LCLC-97TM1 | 0.481 | 0.333 | – | 0.463 | 0.442 | 0.887 | 0.204 | 0.743 | 0.697 | 0.679 | 0.212 | – | 0.263 | – | 0.329 | 0.239 | 0.224 | 0.228 | 0.179 | 0.197
NCI-H1355 | 0.917 | 0.946 | 1.01 | 0.952 | 0.968 | 0.608 | 0.696 | 0.683 | 0.605 | 0.699 | 0.776 | 0.912 | 0.845 | 0.66 | 0.799 | 0.365 | 0.367 | 0.391 | 0.38 | 0.365
NCI-H1666 | 1.09 | 1.28 | 1.07 | 0.648 | 0.495 | 1.01 | 1.23 | 1.01 | 0.928 | 0.938 | 0.908 | 1.06 | 0.909 | 0.757 | 0.917 | 0.543 | 0.676 | 0.76 | 0.654 | 0.692
EPLC-272H | 1.22 | 1.07 | 1.1 | 1.05 | 1.1 | 0.415 | 0.549 | 0.487 | 0.349 | 0.192 | 0.239 | – | 0.23 | 0.227 | 0.161 | 0.33 | – | 0.39 | 0.34 | 0.28
ChaGo-K-1 | 1.42 | 0.876 | 0.762 | – | 0.712 | 0.741 | 0.652 | 0.746 | 0.638 | 0.596 | 0.832 | 0.825 | 0.868 | 0.835 | 0.755 | 0.412 | 0.476 | 0.545 | 0.516 | 0.434
NCI-H1651 | 1.17 | 1.14 | 1.05 | 0.925 | 0.471 | 0.224 | 0.554 | 0.478 | 0.567 | 0.591 | 0.424 | 0.598 | 0.532 | 0.308 | 0.477 | 0.259 | 0.577 | 0.657 | 0.536 | 0.612
NCI-H2087 | – | 0.789 | 0.962 | 0.785 | 0.598 | 0.661 | 0.748 | 0.729 | 0.573 | 0.774 | 1.31 | 1.59 | 1.45 | 1.3 | 1.75 | 0.245 | 0.215 | 0.286 | 0.24 | 0.208
HCC-44 | 0.944 | 1.07 | 1.14 | 1 | 0.963 | 1.12 | 1.2 | 1.05 | 1.15 | 1.35 | 1.05 | 1.22 | 1.04 | 1.03 | 1.11 | 0.938 | 0.958 | 0.99 | 0.922 | 1.01
RERF-LC-KJ | 0.867 | 0.828 | 0.946 | 0.603 | 0.481 | 0.565 | 0.816 | 0.686 | 0.709 | 0.664 | 1.17 | 0.878 | 0.953 | 0.814 | 1.08 | 0.691 | 0.753 | 0.684 | 0.622 | 0.561
